{"source": "patent US11564913B2", "about": "“Compositions and methods for treating cancer” (Children's Hospital Medical Center, priority 2019, dated 2023)", "format_in_all_cases": "cell-based, murine", "key": {"[1]": {"system": "BCR-ABL1-transformed Ba/F3 cells", "assay": "Colony formation assay in soft agar", "settings": "1 or 10 μM", "experimental": "(B) IODVA1-dependent survival curves of empty vector (red circles) or p190-BCR-ABL1 (black circles) expressing Ba/F3 cells and of Nalm-1 cells. […] (C) p190-BCR-ABL1 (grey line) or Mieg3 (black line) expressing Ba/F3 cells were allowed to grow for 1 day, treated with IODVA1 (IO1, 1 μM) for 1 day, and washed (black arrow). Cells were counted for 7 days using trypan blue exclusion. (D) Ba/F3 cells stably expressing p190-BCR-ABL1 were subjected to colony formation assay in soft agar (0.25% Noble Agar in RPMI/FBS/IL-3) in the presence of DMSO or IODVA1 (1 or 10 μM). Colonies were allowed to form for 10 days then stained with iodonitrotetrazolium (1 mg/mL). Data are representative of at least three independent experiments in triplicates. Note the smaller colony size in 1 μM IODVA1 treatment group. (E) Leukemic burden (%) of treated mice before treatment (left upper panel) and at the indicated treatment time was analyzed by flow cytometry of bone marrow aspirates as population containing B220^+/CD43^+ pro-B cells. (F) Count (%) of residual leukemic (EGFP^+-BCR-ABL1) cells in peripheral blood at weeks 3 and 5 for the secondary transplant mice from FIG. 1D. […]\nIODVA1 specifically targets BCR-ABL B-ALL cells in vitro. […] We then assessed survival of p190-BCR-ABL-transformed CD34^+ cells in the presence of IODVA1 by trypan blue exclusion. […]"}, "[2]": {"molecular_target": "Vav3 binding to Rac in empty vector Ba/F3 cells (Mus musculus, UniProt Q9R0C8)", "sequence (Q9R0C8 whole entry)": "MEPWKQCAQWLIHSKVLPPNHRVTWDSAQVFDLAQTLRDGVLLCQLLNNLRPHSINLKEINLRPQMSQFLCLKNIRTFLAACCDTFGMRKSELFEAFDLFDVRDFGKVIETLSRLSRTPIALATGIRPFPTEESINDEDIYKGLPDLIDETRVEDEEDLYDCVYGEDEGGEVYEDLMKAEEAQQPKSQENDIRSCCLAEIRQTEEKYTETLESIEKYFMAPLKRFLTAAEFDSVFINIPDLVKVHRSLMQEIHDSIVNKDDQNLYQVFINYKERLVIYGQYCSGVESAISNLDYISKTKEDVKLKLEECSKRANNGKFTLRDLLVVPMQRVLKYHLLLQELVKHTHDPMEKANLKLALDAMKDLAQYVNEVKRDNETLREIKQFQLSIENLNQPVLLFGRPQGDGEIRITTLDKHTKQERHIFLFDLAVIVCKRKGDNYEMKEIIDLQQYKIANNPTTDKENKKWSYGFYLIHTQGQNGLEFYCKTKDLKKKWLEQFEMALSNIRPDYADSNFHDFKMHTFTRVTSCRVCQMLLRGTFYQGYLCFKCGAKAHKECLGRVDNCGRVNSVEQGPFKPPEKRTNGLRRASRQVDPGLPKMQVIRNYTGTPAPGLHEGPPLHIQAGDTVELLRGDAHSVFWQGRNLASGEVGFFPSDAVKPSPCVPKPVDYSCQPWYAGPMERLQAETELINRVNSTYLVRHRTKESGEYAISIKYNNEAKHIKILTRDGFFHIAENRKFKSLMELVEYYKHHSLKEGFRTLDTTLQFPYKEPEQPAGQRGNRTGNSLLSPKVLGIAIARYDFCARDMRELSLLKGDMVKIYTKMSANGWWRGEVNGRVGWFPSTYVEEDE", "assay": "GST-Rac pull-down, immunoblot for pVav3", "settings": "3 μM, 30 min", "experimental": "(§1) FIG. 14: IODVA1 targets Vav3 in vitro and in vivo. (A) Ba/F3 cells expressing empty vector Mieg3 or p190-BCR-ABL1 were treated with vehicle control or IODVA1 (IO1, 3 μM) for 30 min and incubated with GST-Rac and glutathione beads. Beads were washed and the protein complexes were separated on SDS-PAGE and immunoblotted for pVav3. Input Vav3 was used as control. (B) Binding affinity (Kd) between IODVA1 and Vav3 (green), LARG (brown), and RacGDP (blue). […] Error bars=SD; N=3. (C) Quantification of the average number of colonies made by bone marrow wild-type (black) and Vav3^−/− (lilac) p190-BCR-ABL1 leukemic cells treated with vehicle control or IODVA1 (IO1, 1 and 3 μM) (* p≤0.05; ** p≤0.01; *** p≤0.001; ns, not significant). (D) Representative histogram data of the cell cycle analysis of wild-type (black and grey bars) and Vav3^−/− (dark and light lilac) bone marrow cells expressing p190-BCR-ABL and treated with vehicle control or IODVA1 (IO1, 3 μM) for 20 h. (E) Quantification by densitometry of the pVav3 band from FIG. 14A. […]\n(§2) Rac activity and signaling is regulated by GAPs, GDIs, and RacGEFs. […] The pull-down protein complex was separated on SDS-PAGE and immunoblotted for pVav3 and Vav3 and quantified (FIGS. 14A & 14E). […]"}, "[3]": {"molecular_target": "Vav3 binding to Rac in p190-BCR-ABL Ba/F3 cells (Mus musculus, UniProt Q9R0C8)", "sequence (Q9R0C8 whole entry)": "as above", "assay": "GST-Rac pull-down, immunoblot for pVav3", "settings": "3 μM, 30 min", "experimental": "as §1, §2"}}, "data": [{"molecule": "OC1(c2ccccn2)N=C(Nc2nc3ccccc3[nH]2)N=C1c1ccccn1", "note": "(stereo not drawn) [IODVA1, (Z)-2-((1H-benzo[d]imidazol-2-yl)imino)-4,5-di(pyridin-2-yl)-2,5-dihydro-1H-imidazol-5-ol]", "values": [{"measurement": "clonogenic ability in soft agar", "setting": "[1]", "value": "inhibits"}, {"measurement": "Vav3 or pVav3 bound to Rac", "setting": "[2]", "value": "no significant change"}, {"measurement": "decrease in intensity of pVav3 band bound to Rac", "setting": "[3]", "value": 8, "unit": "times"}]}]}
